Experimental data taken from US20260250318A1, “COMPOSITIONS AND METHODS FOR CROSSING THE BLOOD BRAIN BARRIER” (VOYAGER THERAPEUTICS, INC., priority 2022, published 2026).

What was measured:
Conditions in all cases: synthetic library passage 3, intravenous, relative to wild-type AAV9
[1] = system: brain, spinal cord, and DRG of the NHPs; test: NGS fold enrichment of synthetic library (passage 3) in NHPs, first cross-species screen; assay type: in vivo, cynomolgus macaques (Macaca fascicularis)
Procedure, shortened: (§1)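 Passage-3 synthetic capsid library given intravenously […] to NHPs (2-4 years) and BALB/c or C57Bl/6 mice (n=3, 6-8 weeks). After e.g. 28 days, tissue RNA was RT-PCR amplified and NGS-sequenced; values are fold enrichment of each variant relative to wild-type AAV9.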

[2] = system: brain; test: NGS fold enrichment of synthetic library (passage 3) in BALB/c mice, first cross-species screen; assay type: in vivo
Procedure, shortened: as §1

[3] = system: brain; test: NGS fold enrichment of synthetic library (passage 3) in C57Bl/6 mice, first cross-species screen; assay type: in vivo
Procedure, shortened: as §1

[4] = RNA from spinal cord of NHPs, NGS
[5] = RNA from brain of BALB/c mice, NGS
[6] = RNA from brain of C57Bl/6 mice, NGS

Sequence	Fold enrichment over AAV9 in the brain of NHPs ([1]; RNA NGS, brain of NHPs) [fold]	Fold enrichment over AAV9 in the spinal cord of NHPs ([1]; RNA NGS, spinal cord of NHPs) [fold]	Fold enrichment over AAV9 in the brain of Mice (BALB/c) ([2]; RNA NGS, brain of BALB/c mice) [fold]	Fold enrichment over AAV9 in the brain of Mice (C57Bl/6) ([3]; RNA NGS, brain of C57Bl/6 mice) [fold]	Fold enrichment over AAV9 in the brain of NHPs ([1]; RNA from brain of NHPs, NGS) [fold]	Fold enrichment over AAV9 in the spinal cord of NHPs [1, 4] [fold]	Fold enrichment over AAV9 in the brain of Mice (BALB/c) [2, 5] [fold]	Fold enrichment over AAV9 in the brain of Mice (C57Bl/6) [3, 6] [fold]
GSRNGHTVGRNQQT	1.993	0.000	0.367	1.162				
GSDQSKRGDSNQQT					1.225	0.639	0.267	0.479
GSTPAGVGGQNQQT	1.663	2.733	0.477	0.593				
GSGQNQRGALATQT	1.722	1.117	0.891	0.899				
GSGQIRESMGNQQT					1.270	1.676	0.523	0.833
GVVHITNSGQNQQT	1.969	0.504	0.846	0.794				
GSDQNQRLTSSMQT	1.479	0.164	0.670	0.875				
GSGQNQQTSTGVHS	1.660	8.271	1.075	1.039				
GSSGHRESGQNQQT	1.048	4.398	0.691	0.641				
GSGVHGVSSQNQQT	1.781	4.519	0.951	1.504				
GSGQNQQTSQPLPG					1.141	0.080	0.530	0.748
GTPTSPSSGQNQQT	1.086	4.558	0.662	0.833				
GSGQIVSTQTNQQT	1.456	1.103	0.512	0.453				
GERHTVLSGQNQQT	3.289	3.008	0.607	1.027				
GSGQNQAVHNKSQT	1.956	3.791	1.083	1.465				
GSGQNQQTSPRLQT	1.100	0.795	1.091	1.156				
